Common to all, as to type: cell-based, human
Assay [1] concerns 201B7 cells. Description: Immunostaining of subcultured cells for pluripotency markers (Oct3/4, Nanog, SSEA4, TRA-1-60). Conditions: cells subcultured from the 11th passage. The procedure:
Each of the cells at the 11th passage was seeded on a Matrigel-coated 4-well slide glass, and subculture was continued. When the cells reached 70% confluency, the medium was removed, and the cells were washed once with PBS. The cells were immobilized with 4% para-formaldehyde, and then were washed three times with PBS. Meanwhile, in the case of staining for Oct3/4 and Nanog, a permeabilization solution (0.2% Triton X-100 (PBS solution)) was added to the cells, and the cells were left to stand for 15 minutes at room temperature. Subsequently, the cells were washed three times for 5 minutes with a washing buffer (2% FBS (PBS solution)).
Thereafter, primary antibodies diluted with the washing buffer were added to the cells, and the cells were left to stand overnight at 4° C. Meanwhile, the types of the various primary antibodies and the dilution ratios are as follows.
Mouse anti-Oct3/4 antibody (BD Transduction Laboratories): 200 times
Rabbit anti-Nanog antibody (manufactured by ReproCELL Inc.): 1000 times
Mouse anti-SSEA4 antibody (manufactured by Chemicon Corporation): 200 times
Mouse anti-TRA-1-60 antibody (manufactured by Chemicon Corporation): 200 times
Subsequently, the cells were […] three times for 5 minutes with the washing buffer, and then secondary antibodies diluted with the washing buffer were added. The cells were left to stand for one hour at 4° C. […]

In assay [2] the test system is 201B7 cells. Description: Effect of activin A on differentiation of embryoid bodies formed by hanging drop culture (microscopic observation). Conditions: activin A 100 ng/mL instead of bFGF; at least 14 days after the initiation of culture; Matrigel-coated plate. The procedure:
Cell culture was carried out using cells of strain HPS0001 201B7, which are human induced pluripotent stem cells (iPS cells), obtained from RIKEN BioResource Center, Cell Bank. The cell culture was carried out in a humidified chamber at 37° C. under the conditions of 5% CO2 using, as a medium, Dulbecco […] (DMEM)-F12 medium (manufactured by Sigma-Aldrich Japan K.K.) supplemented with a knockout serum replacement additive (KSR; manufactured by Life Technologies Japan, Ltd. (final concentration 20%), a 1/100 dilution of 100-times concentrated […] (manufactured by Life Technologies Japan, Ltd.), 2 mM L-glutamine (manufactured by Life Technologies Japan, Ltd.), 0.1 mM 2-mercaptoethanol (manufactured by Sigma-Aldrich Japan K.K.), and 5 ng/mL of basic fibroblast growth factor (bFGF; manufactured by Wako Pure Chemical industries, Ltd.). At this time, 201B7 cell line was proliferated by co-culturing 201B7 cell line on cells of strain SNL76/7, which are mouse-derived fetal fibroblasts proliferated on a culture plate (manufactured by AGC Techno Glass Corp.) treated with mitomycin C (manufactured by Sigma-Aldrich Japan K.K.) and coated with gelatin (manufactured by Sigma-Aldrich Japan K.K.), and the 201B7 cell line was maintained. Also, at the time of subculturing, cells were collected using a CTK solution. […]

Assay [3] concerns 201B7 cells. The assay can be described thus: Alkaline phosphatase staining of subcultured cells at the 12th passage. Conditions: activin A 10 ng/mL, CHIR99021 2 μM, LIF 1000 U/mL. The text has this:
Among the cells that had been subcultured as described above, those subcultured in the presence of activin A alone (A), a combination of activin A+CHIR99021 (AC), and a combination of activin A+CHIR99021+LIF (ACL) were subjected to alkaline phosphatase staining as described above, at the 12th passage. The results are shown in the photographs on the left side of FIG. 5.

The test system of assay [4] is 201B7 cells. The assay can be described thus: Evaluation of cell proliferative capacity by MTS assay. Conditions: FIG. 2. The procedure:
The proliferative capacity of 201B7 cells that had been cultured in the presence of activin A was evaluated by an MTS assay.
In general terms: Tetrazolium dyes change colour on reduction, which living cells bring about.

In assay [5] the test system is 201B7 cells. The assay can be described thus: Confirmation of maintenance of undifferentiation potency by alkaline phosphatase (ALP) staining and phase contrast morphology. The text has this: It was confirmed by alkaline phosphatase (ALP) staining that the 201B7 cells cultured in the presence of activin A maintained undifferentiation potency. Meanwhile, the photographs on the left side of FIG. 3 are images observed with a phase contrast microscope, and the photographs on the right side are images observed after ALP staining.

On to “activin A: homodimer of the β chain of inhibin A (βAβA), TGF-β superfamily protein; manufactured by R & D Systems, Inc.”, for which the “staining of nuclei by anti-Oct3/4 antibody” value in the assay on 201B7 cells [1] was “positively stained”. In addition, the “morphological condition of embryoid bodies” value with 201B7 cells [2] is on record as “maintained a morphologically undifferentiated condition”. The ALP staining result in the assay with 201B7 cells [3], in the assay on 201B7 cells [5] (activin A 1 ng/mL), with 201B7 cells [5] (activin A 10 ng/mL), in the assay on 201B7 cells [5] (activin A 30 ng/mL) and in the assay with 201B7 cells [5] (activin A 100 ng/mL) was “positive” in each case. Also, the “concentration of added activin at which 201B7 cells had proliferative capacity” value with 201B7 cells [4] was in the range of 3 to 30 ng/mL. The “concentration of added activin A at which iPS cells can maintain undifferentiation potency” value with 201B7 cells [5] (ALP staining and morphology) was 0.01 to 0.1 µg/mL. The cell morphology entry in the assay with 201B7 cells [5] (activin A 1 ng/mL) is on record as “slightly similar to fibroblasts”; in the assay on 201B7 cells [5] (activin A 10 ng/mL), “maintained an undifferentiated condition”; in the assay with 201B7 cells [5] (activin A 30 ng/mL), “maintained an undifferentiated condition”; in the assay on 201B7 cells [5] (activin A 100 ng/mL), “maintained an undifferentiated condition”.

These data come from patent US20120164729A1, “COMPOSITION FOR CULTURING PLURIPOTENT STEM CELLS AND USE THEREOF” (NATIONAL UNIVERSITY CORPORATION CHIBA UNIVERSITY, priority 2010, published 2012).
